Molecules are shown by their SMILES.

This note sets out measurements from patent US20210300894A1, “CRYSTALLINE FORM OF N-[1-(5-CYANO-PYRIDIN-2-YLMETHYL)-1 H-PYRAZOL-3-YL]-2-[4-(1-TRIFLUO-ROMETHYL-CYCLOPROPYL)-PHENYL]-ACETAMIDE” (IDORSIA PHARMACEUTICALS LTD, priority 2017, published 2021).

The nature of the series: Gravimetric vapour sorption (GVS) analysis, moisture sorption at 25° C. Conditions: stepping mode in steps of 5% RH, classification according to Ph. Eur. Format: physicochemical. The protocol: Gravimetric Vapour Sorption (GVS) Analysis
Measurements were performed on an IGASORP Model HAS-036-080 moisture sorption instrument (Hiden Isochema, Warrington, UK) operated in stepping mode at 25° C. The sample was allowed to equilibrate at the starting relative humidity (RH) before starting a pre-defined humidity program in steps of 5% ARH and with a maximal equilibration time of 24 hours per step. About 20 to 30 mg of each sample was used.

As to `N#Cc1ccc(Cn2ccc(NC(=O)Cc3ccc(C4(C(F)(F)F)CC4)cc3)n2)nc1` [COMPOUND in crystalline form 1, N-[1-(5-cyano-pyridin-2-ylmethyl)-1H-pyrazol-3-yl]-2-[4-(1-trifluoromethyl-cyclopropyl)-phenyl]-acetamide], the “Moisture sorption at 25° C. (GVS), hygroscopicity according to Ph. Eur.” value is recorded as “not hygroscopic according to Ph. Eur”.
